The values that follow come from PubChem BioAssay AID264 (DTP/NCI, 2004).

Several values for one entry are separate records, joined by “and”; a condition that tells them apart may be missing. Equal entries are not always repeated. Inconclusive results are not listed.

The assay relates to nude mice, LX-1 lung xenograft intrarenal, tumor weight T/C. Briefly: NCI In Vivo Anticancer Drug Screen. Data for tumor model Human Lung LX-1 Xenograft (intrarenal inoculation) in NU/NU Swiss (nude) mice. The conditions noted are these: endpoint: mean tumor weight change, higher = larger tumour. Put shortly:
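In vivo, transplantable tumor; compound vs vehicle arms; tumor size measured; value = T/C.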
A general note: A xenograft is tissue or cells of one species grown in another, often human tumour cells in immunodeficient mice.

Where [1] appears, read: dose: 25.0 mg/kg/injection, schedule: Q04DX003 (sc), vehicle: saline with Tween-80.
Setting [2] is: dose: 300.0 mg/kg/injection, schedule: Q04DX003 (sc), vehicle: Klucel (hydroxypropylcellulose) (HPC).
Where [3] appears, read: dose: 600.0 mg/kg/injection, schedule: Q04DX003 (sc), vehicle: Klucel (hydroxypropylcellulose) (HPC).
Setting [4] is: dose: 2400.0 mg/kg/injection, schedule: Q04DX003 (sc), vehicle: Klucel (hydroxypropylcellulose) (HPC).
Where [5] appears, read: dose: 50.0 mg/kg/injection, schedule: Q01DX010 (sc), vehicle: saline with Tween-80.
[6] abbreviates: dose: 1200.0 mg/kg/injection, schedule: Q04DX003 (sc), vehicle: Klucel (hydroxypropylcellulose) (HPC).

For `O=C(O)c1c2c(nc3ccccc13)Cc1ccccc1-2`, the T/C reads like this: (dose: 100.0 mg/kg/injection, schedule: Q01DX010 (sc), vehicle: water) 39 % of control; (dose: 200.0 mg/kg/injection, schedule: Q01DX010 (sc), vehicle: water) 33 % of control.

With `N#CC(=C1SCS1)[N+](=O)[O-]`, the T/C was 79 % of control (dose: 6.0 mg/kg/injection, schedule: Q04DX003 (sc), vehicle: saline); 103 % of control (dose: 12.0 mg/kg/injection, schedule: Q04DX003 (sc), vehicle: saline); 109 % of control (dose: 24.0 mg/kg/injection, schedule: Q04DX003 (sc), vehicle: saline); 94 % of control (dose: 48.0 mg/kg/injection, schedule: Q04DX003 (sc), vehicle: saline).

As for `COc1ccc2c(c1)CCn1c(C)c(COC(=O)NC(C)C)c(COC(=O)NC(C)C)c1-2`, the T/C (dose: 37.5 mg/kg/injection, schedule: Q04DX003 (sc), vehicle: distilled water + Tween-80) was 65 % of control; the T/C (dose: 75.0 mg/kg/injection, schedule: Q04DX003 (sc), vehicle: distilled water + Tween-80) was 64 % of control; the T/C (dose: 150.0 mg/kg/injection, schedule: Q04DX003 (sc), vehicle: distilled water + Tween-80) is 55 % of control; the T/C (dose: 300.0 mg/kg/injection, schedule: Q04DX003 (sc), vehicle: distilled water + Tween-80) is 63 % of control.

Consider `C=CCNc1nc2c(s1)CCc1cc(OC)c(OC)cc1-2`, for which the T/C (dose: 150.0 mg/kg/injection, schedule: Q04DX003 (sc), vehicle: saline with Tween-80) was 89 % of control.

For `C[CH2][Sn]([CH2]C)([CH2]C(=O)OC)[CH2]C(=O)OC`, the T/C is, setting by setting: (dose: 6.25 mg/kg/injection, schedule: Q04DX003 (sc), vehicle: saline with Tween-80) 97 % of control; (dose: 12.5 mg/kg/injection, schedule: Q04DX003 (sc), vehicle: saline with Tween-80) 92 % of control; under setting [1], 70 % of control.

With `O=C(O)C(O)C(O)C1[O][Sb][O]C1C(=O)O` (stereo not drawn), the T/C reads like this: (dose: 37.5 mg/kg/injection, schedule: Q04DX003 (sc), vehicle: saline) 106 % of control; (dose: 75.0 mg/kg/injection, schedule: Q04DX003 (sc), vehicle: saline) 105 % of control.

`Nc1ccccc1N`: the T/C was 55 % of control (dose: 25.0 mg/kg/injection, schedule: Q01DX010 (sc), vehicle: Klucel (hydroxypropylcellulose) (HPC)); 66 % of control and 75 % of control (dose: 100.0 mg/kg/injection, schedule: Q01DX010 (sc), vehicle: Klucel (hydroxypropylcellulose) (HPC)); 83 % of control (dose: 200.0 mg/kg/injection, schedule: Q01DX010 (sc), vehicle: Klucel (hydroxypropylcellulose) (HPC)).

For the compound `Nc1ncnc2c1ncn2C1C=C(CO)C(O)C1O` (stereo not drawn), the T/C (dose: 3.75 mg/kg/injection, schedule: Q04DX003 (sc), vehicle: saline) is 49 % of control; the T/C (dose: 7.5 mg/kg/injection, schedule: Q04DX003 (sc), vehicle: saline) was 70 % of control; the T/C (dose: 15.0 mg/kg/injection, schedule: Q04DX003 (sc), vehicle: saline) is 58 % of control.

In the case of `COc1cccc2c1C(=O)c1c(O)c3c(c(O)c1C2=O)C[C@@](O)(C(=O)CO)C[C@@H]3OC1CC(N)C(OC)C(C)O1` (stereo partly drawn), the T/C reads like this: (dose: 0.75 mg/kg/injection, schedule: Q01DX010 (sc), vehicle: saline) 29 % of control; (dose: 3.0 mg/kg/injection, schedule: Q01DX010 (sc), vehicle: saline) 14 % of control.

`C[Si](C)(C)OSc1ccccc1[N+](=O)[O-]`: the T/C reads like this: under setting [2], 150 % of control; under setting [3], 151 % of control; under setting [4], 123 % of control.

On to `BrCC[Se]c1ccccc1`, for which the T/C is 92 % of control under setting [5]; 62 % of control (dose: 100.0 mg/kg/injection, schedule: Q01DX010 (sc), vehicle: saline with Tween-80); 55 % of control (dose: 200.0 mg/kg/injection, schedule: Q01DX010 (sc), vehicle: saline with Tween-80).

Take `OC1CCCC2CCC[N-]C12.OC1CCCC2CCC[N-]C12.[Mn+2]` (stereo not drawn): the T/C is, setting by setting: under setting [2], 95 % of control; under setting [3], 52 % of control; under setting [6], 46 % of control; under setting [4], 63 % of control.

With `COC(=O)[C@@]12OC[C@]34[C@H]([C@@H](O)[C@@H]1O)[C@@]1(C)CC(=O)C(O)=C(C)[C@@H]1C[C@H]3OC(=O)[C@H](OC(=O)/C=C(\C)C(C)C)[C@@H]24`, the T/C is, setting by setting: (dose: 0.25 mg/kg/injection, schedule: Q04DX003 (sc), vehicle: saline + alcohol) 115 % of control; (dose: 0.5 mg/kg/injection, schedule: Q01DX010 (sc), vehicle: saline + alcohol) 101 % of control; (dose: 0.5 mg/kg/injection, schedule: Q04DX003 (sc), vehicle: saline + alcohol) 91 % of control; (dose: 1.0 mg/kg/injection, schedule: Q04DX003 (sc), vehicle: saline + alcohol) 114 % of control; (dose: 2.0 mg/kg/injection, schedule: Q04DX003 (sc), vehicle: saline + alcohol) 59 % of control.

With `O=c1n(CC2CO2)c(=O)n(CC2CO2)c(=O)n1CC1CO1` (stereo not drawn), the T/C is 65 % of control (dose: 12.5 mg/kg/injection, schedule: Q01DX010 (sc), vehicle: saline); 56 % of control (dose: 25.0 mg/kg/injection, schedule: Q01DX010 (sc), vehicle: saline); 94 % of control under setting [1]; 100 % of control (dose: 50.0 mg/kg/injection, schedule: Q04DX003 (sc), vehicle: saline with Tween-80).

Consider `CN1CCN(Cc2nc3cccc4c3c([n+]2[O-])-c2ccccc2-4)CC1`, for which the T/C runs as follows: (dose: 12.5 mg/kg/injection, schedule: Q01DX010 (sc), vehicle: saline with Tween-80) 83 % of control; (dose: 25.0 mg/kg/injection, schedule: Q01DX010 (sc), vehicle: saline with Tween-80) 161 % of control; under setting [5], 180 % of control.

For `O=C1N[C@@H]([C@H]2CC[C@H](Cl)CN2)C(=O)N[C@H]1[C@H]1CC[C@H](Cl)CN1`, the T/C was 124 % of control (dose: 0.63 mg/kg/injection, schedule: Q01DX010 (sc), vehicle: water); 98 % of control (dose: 1.25 mg/kg/injection, schedule: Q01DX010 (sc), vehicle: water); 22 % of control (dose: 5.0 mg/kg/injection, schedule: Q01DX010 (sc), vehicle: water); 70 % of control (dose: 5.0 mg/kg/injection, schedule: Q04DX003 (sc), vehicle: water); 58 % of control (dose: 10.0 mg/kg/injection, schedule: Q04DX003 (sc), vehicle: water).

Turning to `CSC(SC)=C1C(=O)NC(=O)NC1=O`, the T/C runs as follows: (dose: 150.0 mg/kg/injection, schedule: Q04DX003 (sc), vehicle: suspension in saline) 68 % of control; (dose: 300.0 mg/kg/injection, schedule: Q04DX003 (sc), vehicle: suspension in saline) 102 % of control; (dose: 600.0 mg/kg/injection, schedule: Q04DX003 (sc), vehicle: suspension in saline) 42 % of control.

As for `CC[PH+](CC)CC[S-].CC[PH+](CC)CC[S-].[Au+].[Au+]`, the T/C (dose: 40.0 mg/kg/injection, schedule: Q04DX003 (sc), vehicle: Klucel (hydroxypropylcellulose) (HPC)) was 105 % of control; the T/C (dose: 160.0 mg/kg/injection, schedule: Q04DX003 (sc), vehicle: Klucel (hydroxypropylcellulose) (HPC)) was 105 % of control; the T/C (dose: 320.0 mg/kg/injection, schedule: Q04DX003 (sc), vehicle: Klucel (hydroxypropylcellulose) (HPC)) is 96 % of control.

On to `Nc1ccc(C(OC(=O)c2cc3ccccc3c(Cc3c(O)c(C(=O)OC(c4ccc(N)cc4)(c4ccc(N)cc4)c4ccc(N)cc4)cc4ccccc34)c2O)(c2ccc(N)cc2)c2ccc(N)cc2)cc1`, for which the T/C reads like this: (dose: 36.0 mg/kg/injection, schedule: Q04DX003 (sc), vehicle: saline with Tween-80) 87 % of control; (dose: 72.0 mg/kg/injection, schedule: Q04DX003 (sc), vehicle: saline with Tween-80) 116 % of control; (dose: 144.0 mg/kg/injection, schedule: Q04DX003 (sc), vehicle: saline with Tween-80) 67 % of control; (dose: 288.0 mg/kg/injection, schedule: Q04DX003 (sc), vehicle: saline with Tween-80) 58 % of control.

Regarding `CC(=O)C1=C(O)C2(O)C(=O)c3c(c(C)c4ccc(C)c(O)c4c3O)CC2C(N)C1=O` (stereo not drawn), the T/C (dose: 50.0 mg/kg/injection, schedule: Q04DX003 (sc), vehicle: saline) was 107 % of control; the T/C (dose: 100.0 mg/kg/injection, schedule: Q04DX003 (sc), vehicle: saline) is 110 % of control; the T/C (dose: 200.0 mg/kg/injection, schedule: Q04DX003 (sc), vehicle: saline) was 61 % of control; the T/C (dose: 400.0 mg/kg/injection, schedule: Q04DX003 (sc), vehicle: saline) is 51 % of control.

Take `CN=C(NC#N)NCCSCc1nc[nH]c1C`: the T/C was 81 % of control under setting [2], 66 % of control under setting [3] and 73 % of control under setting [6].
